The values below come from patent US20080096884A1, “4-Aminoquinoline-3-Carboxamide Derivatives as Pde4 Inhibitors” (priority 2003, published 2008).

Experiment [1] addresses PDE5 (human recombinant) (Homo sapiens, UniProt O76074). The experiment in a line: Inhibition of PDE5 catalytic activity (SPA). The format is biochemical. The following applies: read-out: PDE5 mean pIC50 (converted). The source says: Human recombinant PDE5 is disclosed in K. Loughney et al., “Isolation and characterisation of cDNAs encoding PDE5A, a human cGMP-binding, cGMP-specific 3′,5′-cyclic nucleotide phosphodiesterase”, Gene, 1998, 216, 139-147.
The ability of compounds to inhibit catalytic activity at PDE4B or 4D (human recombinant), PDE3 (from bovine aorta) PDE5 (human recombinant) or PDE 6 (from bovine retina) may be determined by Scintillation Proximity Assay (SPA) in 96-well format. Test compounds (preferably as a solution in DMSO, e.g. 2 microlitre (μl) volume) were preincubated at ambient temperature in Wallac Isoplates (code 1450-514) with PDE enzyme in 50 mM Tris-HCl buffer pH 7.5, 8.3 mM MgCl2, 1.7 mM EGTA, 0.05% (w/v) bovine serum albumin for 10-30 minutes. The enzyme concentration was adjusted so that control rates are linear over the asay incubation period. […] Bound radioactive product was measured using a WALLAC TRILUX 1450 MicroBeta scintillation counter. […] Curves were analysed using ActivityBase and XLfit (ID Businesss Solutions Limited, 2 Ocean Court, Surrey Research Park, Guildford, Surrey GU2 7QB, United Kindgom). Results were expressed as pIC50 values.

Experiment [2] deals with T1, PDE4B (human recombinant) (Homo sapiens, UniProt Q07343).
T1 construct: made in house; host or cells: Saccharomyces cerevisiae strain GL62 (as described in the cited WO 94/20079)
The experiment can be described thus: Inhibition of PDE4B catalytic activity (SPA or IMAP FP assay). In kind it is biochemical. The note with it: SPA or FP assay not specified, read-out: PDE4B mean pIC50 (converted). From the text:
Human recombinant PDE4B, in particular the 2B splice variant thereof (HSPDE4B2B), is disclosed in WO 94/20079 and also in M. M. McLaughlin et al., “A low Km, rolipram-sensitive, cAMP-specific phosphodiesterase from human brain: cloning and expression of cDNA, biochemical characterisation of recombinant protein, and tissue distribution of mRNA”, J. Biol. Chem., 1993, 268, 6470-6476. […]
The ability of compounds to inhibit catalytic activity at PDE4B or 4D (human recombinant), PDE3 (from bovine aorta) PDE5 (human recombinant) or PDE 6 (from bovine retina) may be determined by Scintillation Proximity Assay (SPA) in 96-well format. […] Bound radioactive product was measured using a WALLAC TRILUX 1450 MicroBeta scintillation counter. […] Curves were analysed using ActivityBase and XLfit (ID Businesss Solutions Limited, 2 Ocean Court, Surrey Research Park, Guildford, Surrey GU2 7QB, United Kindgom). Results were expressed as pIC50 values.
The ability of compounds to inhibit catalytic activity at PDE4B (human recombinant) and PDE4D (human recombinant) was determined by IMAP Fluorescence Polarisation (FP) assay (Molecular Devices Ltd code: R8062) in 384-well format. […]
Fluorescein adenosine 3′,5′-cyclic phosphate (Molecular Devices Ltd code: R7091) was added to give ˜40 nM final concentration. […] Curves were analysed using ActivityBase and XLfit (ID Businesss Solutions Limited). […]

T1 sequence (Q07343 1-564 isoform Q07343-2): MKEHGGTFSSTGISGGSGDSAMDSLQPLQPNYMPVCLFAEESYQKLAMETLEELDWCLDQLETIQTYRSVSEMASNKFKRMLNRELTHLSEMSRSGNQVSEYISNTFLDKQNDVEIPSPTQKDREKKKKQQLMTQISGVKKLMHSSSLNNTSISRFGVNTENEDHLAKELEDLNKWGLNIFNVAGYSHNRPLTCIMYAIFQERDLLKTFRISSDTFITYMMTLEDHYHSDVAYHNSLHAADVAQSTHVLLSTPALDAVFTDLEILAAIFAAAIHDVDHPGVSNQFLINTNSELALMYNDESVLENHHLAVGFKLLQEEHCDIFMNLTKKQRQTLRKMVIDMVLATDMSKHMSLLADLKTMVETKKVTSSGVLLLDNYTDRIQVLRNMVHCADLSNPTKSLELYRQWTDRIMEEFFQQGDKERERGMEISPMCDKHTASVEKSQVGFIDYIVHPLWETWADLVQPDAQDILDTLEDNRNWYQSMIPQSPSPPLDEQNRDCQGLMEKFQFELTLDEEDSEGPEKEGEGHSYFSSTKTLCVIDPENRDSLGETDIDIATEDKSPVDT

For the compound `COc1cccc(Nc2c(C(N)=O)cnc3ccc(S(=O)(=O)N(C)C)cc23)c1` [Example 2, 6-[(dimethylamino)sulfonyl]4-{[3-(methyloxy)phenyl]amino}-3-quinolinecarboxamide], the IC50 in experiment [1] was 15.8 µM; in experiment [2] it was 0.001 µM.
As for `NC(=O)c1cnc2ccc(S(=O)(=O)N3CCOCC3)cc2c1Nc1cccc(Cl)c1` [Example 4], the IC50 in experiment [1] is 12.6 µM; in experiment [2], 0.00251 µM.
